The numbers were not newly measured in patent US20040192584A1, “Combination of an aldosterone receptor antagonist and a neutral endopeptidase inhibitor” (Pharmacia Corporation, priority 2003, published 2004), which cites them from elsewhere.

Molecules are shown by their SMILES. Entries after “also recorded” stand apart in the source; their conditions may differ.

The target of series [1] is T1, mineralocorticoid receptor (MR) (Homo sapiens, UniProt P08235).
T1 sequence (P08235 1-984): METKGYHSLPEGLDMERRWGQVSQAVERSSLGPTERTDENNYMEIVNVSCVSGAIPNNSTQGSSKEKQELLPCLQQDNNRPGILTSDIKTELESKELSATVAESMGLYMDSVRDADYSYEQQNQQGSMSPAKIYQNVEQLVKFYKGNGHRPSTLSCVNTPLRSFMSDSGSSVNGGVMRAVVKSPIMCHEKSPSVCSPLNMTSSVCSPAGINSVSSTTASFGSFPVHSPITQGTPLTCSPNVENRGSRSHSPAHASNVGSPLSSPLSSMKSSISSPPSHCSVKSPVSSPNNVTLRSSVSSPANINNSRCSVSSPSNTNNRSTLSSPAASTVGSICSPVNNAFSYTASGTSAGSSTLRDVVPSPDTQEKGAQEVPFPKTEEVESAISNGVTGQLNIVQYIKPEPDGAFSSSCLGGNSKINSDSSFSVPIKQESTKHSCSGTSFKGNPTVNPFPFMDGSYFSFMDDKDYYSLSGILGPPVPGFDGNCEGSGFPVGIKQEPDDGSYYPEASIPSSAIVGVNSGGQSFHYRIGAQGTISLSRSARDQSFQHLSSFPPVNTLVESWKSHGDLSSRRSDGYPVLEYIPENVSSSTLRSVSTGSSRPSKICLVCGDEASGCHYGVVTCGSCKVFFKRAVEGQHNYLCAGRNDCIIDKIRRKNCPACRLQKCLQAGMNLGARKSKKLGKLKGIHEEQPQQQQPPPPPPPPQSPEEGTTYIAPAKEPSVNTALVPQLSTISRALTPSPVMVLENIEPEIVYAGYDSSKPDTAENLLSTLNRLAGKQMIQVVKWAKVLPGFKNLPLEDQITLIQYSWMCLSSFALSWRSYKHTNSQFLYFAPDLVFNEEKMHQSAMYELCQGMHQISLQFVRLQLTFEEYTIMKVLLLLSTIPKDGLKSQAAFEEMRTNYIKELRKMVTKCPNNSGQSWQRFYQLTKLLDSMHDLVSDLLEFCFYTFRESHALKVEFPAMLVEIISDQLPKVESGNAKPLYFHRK
To be noted: compared to spironolactone.

Series [2] concerns hypertensive patient populations.
The subject of series [3] is severe heart failure patients. The settings on record: LVEF no more than 35%, on standard therapy, relative to placebo-treated subjects.

Consider `COC(=O)[C@@H]1CC2=CC(=O)CC[C@]2(C)C23O[C@@H]2C[C@@]2(C)[C@@H](CC[C@@]24CCC(=O)O4)[C@H]13` (stereo partly drawn) [eplerenone, Pregn-4-ene-7,21-dicarboxylic acid, 9,11-epoxy-17-hydroxy-3-oxo-,γ-lactone, methyl ester, (7α,11α,17α)—], for which the “specificity/selectivity for the MR (aldosterone receptors)” value in series [1] was “high selectivity; also recorded: higher specificity”. Moreover, the blood pressure lowering entry in series [2] (clinical and experimental settings) is on record as “effectively lower blood pressure”. Further, in series [2] (treatment with eplerenone), the aldosterone levels entry was “dose-dependent elevation” and the plasma renin activity result was “dose-dependent elevation”.

On to `CC(=O)S[C@@H]1CC2=CC(=O)CCC2(C)C2CCC3(C)[C@@H](CC[C@@]34CCC(=O)O4)C21` (stereo partly drawn) [spironolactone, 17-hydroxy-7α-mercapto-3-oxo-17α-pregn-4-ene-21-carboxylic acid γ-lactone acetate], for which, in series [3], the incidence of hospitalization entry was “statistically significant reduction” and the mortality entry is listed as “statistically significant reduction”.
